Holding throughout (format): biochemical
Assay [1] has as its system NFKB1. In words: In vitro transcription-translation (IVTT) assay, NFKB1 reporter. The following applies: HeLa S3 lysate, sfGFP/mCherry ratio. The protocol:
(§1) In vitro transcription-translation assay setup: Each assay includes a master mix containing lysate and shared components, a 96-well plate containing compound titrations for testing, a 96-well DNA plate with reporter constructs to be tested, 96-well skirted PCR plates, and 96-well flat-bottom, black, fluorescent assay plates. Reaction materials setup: (A) Master mix—15 mL conical tube (3 mL of HeLa S3 Lysate described above; 0.6 mL of ThermoFisher Accessory Proteins (#88882); 1.2 ml of ThermoFisher Reaction Mix (#88882); 0.54 mL of nuclease-free Water); (B) 96-Well Master Mix+Compound Plate (Half-log dilutions (30 μM−0.1 μM) of 4 compounds of interest are prepared in 100% DMSO); 96-Well DNA Plate (Five DNA constructs are plated into single columns within the plate. Row 1 of the column contains nuclease free H2O, all other wells contain 110 ng/μL plasmid DNA). Reactions are started by mixing 155 μL of master mix and 3.5 μL of compound serial dilutions, then 9.1 μL of master mix+compound mixture is aliquoted across 5 96-well plates. Reactions begin with final addition of 2 μL of DNA for a 11.1 μL reaction volume in each well. The entire plate is sealed, and incubated for 2 hrs at 30° C. After 2 hrs, quench the assay using 45 μL of PBS, and transfer 50 μL to a flat-bottom black microplate Quantify the sfGFP and mCherry signals from each well on each plate, taking 3 reads of each plate, and perform data analysis below.
(§2) In vitro transcription-translation assay data analysis: Each plate is read three times in channels for both sfGFP and mCherry signals. The average signal across these 3 reads is then calculated for further analysis. Control wells containing no DNA reporter are subtracted from reporter wells in the same column to remove auto-fluorescence of the lysate. Then, the ratio of sfGFP/mCherry is calculated per well, and these ratios are averaged across the triplicate experiments on the same plate. Finally, the ratio of each titration concentration is normalized to the no drug control to create the normalized stalling metric. The error on this measurement is determined by propagating error through the averaging and normalization steps. Values are plotted and fit for IC50 determination for each test sequence and titration of compound.

Assay [2] has as its system MYC. In words: In vitro transcription-translation (IVTT) assay, MYC reporter. The following applies: IVTT assay, HeLa S3 lysate, MYC reporter, normalized sfGFP/mCherry ratio; half-log dilutions 30 μM-0.1 μM, 2 hrs at 30° C. The procedure, abridged:
(§3)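 Reporter: mCherry, P2A, then 3×FLAG-target peptide-sfGFP fusion, IRES-initiated; HeLa S3 lysate IVTT; cpd dilutions 30 μM−0.1 μM half-log in 100% DMSO (dilution-plate conc); DNA added last; 2 h, 30° C; PBS quench.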

Assay [3] concerns CCND1. In words: In vitro transcription-translation (IVTT) assay, CCND1 reporter. The following applies: IVTT assay, HeLa S3 lysate, sfGFP/mCherry ratio. The gist of the method: as §3
Assay [4] has as its system CCNTB1. In words: In vitro transcription-translation (IVTT) assay, CCNTB1 reporter. The following applies: HeLa S3 lysate, sfGFP/mCherry ratio. Here is the method: as §1, §2
Assay [5] relates to MCL-1. In words: In vitro transcription-translation (IVTT) assay, MCL-1 reporter. The following applies: IVTT assay, HeLa S3 lysate, sfGFP/mCherry ratio; read-out: MCL1 IC50. The gist of the method: as §3

We go through 18 molecules from patent publication US20250129021A1, “SMALL MOLECULE PROTEIN SYNTHESIS MODULATORS” (Interdict Bio, Inc., priority 2023, published 2025).

Usually IC50 stands for the concentration needed to halve the response being measured.

For `C[C@H]1CC[C@@H](CCNC(=O)O[C@@H]2[C@@H](O)CN[C@@H]2Cc2ccc(-c3cnco3)cc2)N1` [V192850, (2R,3S,4S)-4-hydroxy-2-{[4-(1,3-oxazol-5-yl)phenyl]methyl}pyrrolidin-3-yl N-{2-[(2S,5S)-5-methylpyrrolidin-2-yl]ethyl}carbamate], the IC50 in assay [1], in assay [2] and in assay [3] was less than 10 µM each time.

Take `O=C(NCc1cccc(F)c1)O[C@@H]1[C@@H](O)CN[C@@H]1Cc1ccc(-c2cnns2)cc1` [V192319, (2R,3S,4S)-4-hydroxy-2-{[4-(1,2,3-thiadiazol-5-yl)phenyl]methyl}pyrrolidin-3-yl N-[(3-fluorophenyl)methyl]carbamate]: the IC50 in assay [1], in assay [2] and in assay [3] was less than 10 µM each time.

Regarding `O=C(NCc1cccc(OC(F)(F)F)c1)O[C@@H]1[C@@H](O)CN[C@@H]1Cc1ccc(-c2cnco2)cc1` [V192276, (2R,3S,4S)-4-hydroxy-2-{[4-(1,3-oxazol-5-yl)phenyl]methyl}pyrrolidin-3-yl N-{[3-(trifluoromethoxy)phenyl]methyl}carbamate], the IC50 in assay [1], in assay [2] and in assay [3] was less than 10 µM each time.

`O=C(NCc1cccc(F)c1)O[C@@H]1[C@@H](O)CN[C@@H]1Cc1ccc(-c2cnc(C(F)F)s2)cc1` [V192310, (2R,3S,4S)-2-({4-[2-(difluoromethyl)-1,3-thiazol-5-yl]phenyl}methyl)-4-hydroxypyrrolidin-3-yl N-[(3-fluorophenyl)methyl]carbamate]: the IC50 in assay [1] was less than 10 µM; in assay [2], less than 10 µM; in assay [3] it was 10 to 20 µM.

Take “(2R,3S,4S)-2-(2,1,3-benzoxadiazol-5-ylmethyl)-4-hydroxypyrrolidin-3-ylN-[(3-fluorophenyl)methyl]carbamate [V192383]”: the IC50 in assay [1], in assay [2] and in assay [3] was less than 10 µM throughout.

Take `O=C(NCC[C@@H]1CCCN1)O[C@@H]1[C@@H](O)CN[C@@H]1Cc1ccc(-c2cnco2)c(F)c1` [V192903, (2R,3S,4S)-2-{[3-fluoro-4-(1,3-oxazol-5-yl)phenyl]methyl}-4-hydroxypyrrolidin-3-yl N-{2-[(2S)-pyrrolidin-2-yl]ethyl}carbamate]: the IC50 in assay [1] was less than 10 µM; in assay [2], less than 10 µM; in assay [3], 10 to 20 µM.

As to `O=C(NCc1cccc(F)c1)O[C@@H]1[C@@H](O)CN[C@@H]1Cc1ccc(-c2ccc(C(F)(F)F)cc2)cc1` [V192083, (2R,3S,4S)-4-hydroxy-2-{[4′-(trifluoromethyl)-[1,1′-biphenyl]-4-yl]methyl}pyrrolidin-3-yl N-[(3-fluorophenyl)methyl]carbamate], the IC50 in assay [4], in assay [2], in assay [3] and in assay [5] was more than 30 µM each time.

On to `COc1ccc(C[C@H]2NC[C@H](O)[C@H]2OC(=O)NCc2ccnc(N3CC4(CCC4)C3)c2)cc1` [V192068, (2R,3S,4S)-4-hydroxy-2-[(4-methoxyphenyl)methyl]pyrrolidin-3-yl N-[(2-{2-azaspiro[3.3]heptan-2-yl}pyridin-4-yl)methyl]carbamate], for which the half-maximal inhibitory concentration (IC50) in assay [4] is less than 10 µM; in assay [2] it was less than 10 µM; in assay [3], 10 to 20 µM; in assay [5] it was less than 10 µM.

On to `O=C(NCCC1CCNCC1)O[C@@H]1[C@@H](O)CN[C@@H]1Cc1ccc(-c2cncs2)cc1` [V192112, (2R,3S,4S)-4-hydroxy-2-{[4-(1,3-thiazol-5-yl)phenyl]methyl}pyrrolidin-3-yl N-[2-(piperidin-4-yl)ethyl]carbamate], for which the half-maximal inhibitory concentration (IC50) in assay [4], in assay [2], in assay [3] and in assay [5] was less than 10 µM throughout.

In the case of `O=C(NCCC1CCNCC1)O[C@@H]1[C@@H](O)CN[C@@H]1Cc1ccc(-c2ccc3c(c2)CC(F)(F)C3)cc1` [V192053, (2R,3S,4S)-2-{[4-(2,2-difluoro-1,3-dihydroinden-5-yl)phenyl]methyl}-4-hydroxypyrrolidin-3-yl N-[2-(piperidin-4-yl)ethyl]carbamate], the IC50 is 10 to 20 µM in assay [4], more than 30 µM in assay [2], more than 30 µM in assay [3] and 20 to 30 µM in assay [5].

Regarding `COc1ccc(C[C@H]2NC[C@H](O)[C@H]2OC(=O)NCc2ccnc(N3CC(O)C3)c2)cc1` [V192067, (2R,3S,4S)-4-hydroxy-2-(4-methoxybenzyl)pyrrolidin-3-yl ((2-(3-hydroxyazetidin-1-yl)pyridin-4-yl)methyl)carbamate], the IC50 in assay [4] is 10 to 20 µM; in assay [2] it was less than 10 µM; in assay [3] it was less than 10 µM; in assay [5] it was less than 10 µM.

For the molecule `O=C(NCc1ccc2c(c1)CCNC2)O[C@@H]1[C@@H](O)CN[C@@H]1Cc1ccc(-c2ccc3c(c2)CC(F)(F)C3)cc1` [V192060, (2R,3S,4S)-2-{[4-(2,2-difluoro-1,3-dihydroinden-5-yl)phenyl]methyl}-4-hydroxypyrrolidin-3-yl N-(1,2,3,4-tetrahydroisoquinolin-6-ylmethyl)carbamate], the IC50 in assay [4] is less than 10 µM; in assay [2], less than 10 µM; in assay [3] it was 20 to 30 µM; in assay [5] it was less than 10 µM.

`O=C(NCc1cccc(F)c1)O[C@@H]1[C@@H](O)CN[C@@H]1Cc1ccc(-c2ccc(Cl)s2)cc1` [V192156, (2R,3S,4S)-2-{[4-(5-chlorothiophen-2-yl)phenyl]methyl}-4-hydroxypyrrolidin-3-yl N-[(3-fluorophenyl)methyl]carbamate]: the concentration for half-maximal inhibition (IC50) in assay [4], in assay [2], in assay [3] and in assay [5] was more than 30 µM in each case.

On to `COc1ccc(C[C@H]2NC[C@H](O)[C@H]2OC(=O)NCC[C@]2(C)CCCN2)cc1` [V191921, (2R,3S,4S)-4-hydroxy-2-[(4-methoxyphenyl)methyl]pyrrolidin-3-yl N-{2-[(2S)-2-methylpyrrolidin-2-yl]ethyl}carbamate], for which the IC50 is less than 10 µM in assay [4], less than 10 µM in assay [2], 10 to 20 µM in assay [3] and less than 10 µM in assay [5].

Consider `O=C(NCC[C@H]1CCCN1)O[C@@H]1[C@@H](O)CN[C@@H]1Cc1ccc(-c2ccc3c(c2)CC(F)(F)C3)cc1` [V192040, (2R,3S,4S)-2-{[4-(2,2-difluoro-1,3-dihydroinden-5-yl)phenyl]methyl}-4-hydroxypyrrolidin-3-yl N-{2-[(2R)-pyrrolidin-2-yl]ethyl}carbamate], for which the IC50 in assay [4] was less than 10 µM; in assay [2], 10 to 20 µM; in assay [3] it was 20 to 30 µM; in assay [5], 10 to 20 µM.

On to `O=C(NCCC1CCNCC1)O[C@@H]1[C@@H](O)CN[C@@H]1Cc1ccc(-c2ccc(C(F)(F)F)cc2)cc1` [V192052, (2R,3S,4S)-4-hydroxy-2-{[4′-(trifluoromethyl)-[1,1′-biphenyl]-4-yl]methyl}pyrrolidin-3-yl N-[2-(piperidin-4-yl)ethyl]carbamate], for which the IC50 in assay [4], in assay [2], in assay [3] and in assay [5] was more than 30 µM in each case.

Take `O=C(NCC(F)F)O[C@@H]1[C@@H](O)CN[C@@H]1Cc1ccc(-c2cnco2)cc1` [V192264, (2R,3S,4S)-4-hydroxy-2-(4-(oxazol-5-yl)benzyl)pyrrolidin-3-yl (2,2-difluoroethyl)carbamate]: the IC50 in assay [4], in assay [2], in assay [3] and in assay [5] was less than 10 µM each time.

Consider `O=C(NCc1cccc(-n2ccnc2)c1)O[C@@H]1[C@@H](O)CN[C@@H]1Cc1ccc(-c2cnco2)cc1` [V192167, (2R,3S,4S)-4-hydroxy-2-{[4-(1,3-oxazol-5-yl)phenyl]methyl}pyrrolidin-3-yl N-{[3-(imidazol-1-yl)phenyl]methyl}carbamate], for which the IC50 in assay [4], in assay [2], in assay [3] and in assay [5] was less than 10 µM each time.
